Source: patent US8986994B2, “Substituted pyridines and pyrimidines” (Technische Universitaet Wien, priority 2009, dated 2015)

Legend:
ANF (C2C12 cells) = assay: ANF promoter luciferase reporter assay in C2C12 cells; assay type: cell-based, mouse; conditions: C2C12 cells, 1 μM for 8 days; for fold induction at 1 µM: Mus musculus, 192 h, luciferase signal vs control (untreated cells), read-out: ANF activity
ANF (P19 cells) = assay: ANF promoter luciferase reporter assay in P19 cells; assay type: cell-based, mouse; conditions: P19 cells, 1 μM for 8 days; for fold induction at 1 µM: Mus musculus, 192 h, luciferase signal vs control (untreated cells), read-out: ANF activity
[1] = tested on: Na currents in C2C12 cells; assay type: cell-based, mouse; conditions: 1 μM for 8 days
Nkx2.5 (C2C12 cells) = assay: Nkx2.5 luciferase reporter assay in C2C12 cells; assay type: cell-based; conditions: Mus musculus, 192 h; C2C12 cells, 1 μM for 8 days, luciferase signal vs control (untreated cells); read-out: Nkx2.5 activity
TOPflash (C2C12 cells) = assay: TOPflash luciferase reporter assay in C2C12 cells; assay type: cell-based; conditions: Mus musculus, 192 h; C2C12 cells, 1 μM for 8 days, luciferase signal vs control (untreated cells); read-out: TOPflash activity
Nkx2.5 (P19 cells) = assay: Nkx2.5 luciferase reporter assay in P19 cells; assay type: cell-based; conditions: Mus musculus, 192 h; P19 cells, 1 μM for 8 days, luciferase signal vs control (untreated cells); read-out: Nkx2.5 activity
TOPflash (P19 cells) = assay: TOPflash luciferase reporter assay in P19 cells; assay type: cell-based; conditions: Mus musculus, 192 h; P19 cells, 1 μM for 8 days, luciferase signal vs control (untreated cells); read-out: TOPflash activity
[2] = tested on: ANF (human primary skeletal myoblasts); assay: ANF reporter assay in human primary skeletal myoblasts; assay type: cell-based; conditions: 1 μM for 6 days, two experiments
[3] = tested on: Ca currents in C2C12 cells; assay: Electrophysiological testing, whole cell patch clamp: Ca currents; assay type: cell-based, mouse
[4] = ANF, TOPflash and Nkx2.5 reporter assays together

In the case of `COc1ccc(Nc2cc(NCCCO)ncn2)cc1` [example 2, 3-(6-(4-Methoxyphenylamino)pyrimidine-4-ylamino)propan-1-ol], the fold induction at 1 µM (ANF (C2C12 cells)) is reported as less than 1.3, the fold induction at 1 µM (ANF (P19 cells)) is reported as 1.3 to 2 and the “tetrodotoxin (TTX)-resistance of the Na currents” value [1] is reported as “moderately increase”. The melting point was 151 to 152 °C, the fold induction at 1 µM (Nkx2.5 (C2C12 cells)) was 1.3 to 2 and the fold induction at 1 µM (TOPflash (C2C12 cells)) was less than 1.3. The fold induction at 1 µM (Nkx2.5 (P19 cells)) was less than 1.3 and the fold induction at 1 µM (TOPflash (P19 cells)) was greater than 2.
`COc1ccc(Nc2ccnc(NCCO)c2)cc1` [example 40, 2-(4-(4-Methoxyphenylamino)pyridin-2-ylamino)ethan-1-ol] gave a fold induction at 1 µM (ANF (C2C12 cells)) of less than 1.3, a fold induction at 1 µM (ANF (P19 cells)) of less than 1.3 and a melting point of 164 to 165 °C. The fold induction at 1 µM (Nkx2.5 (C2C12 cells)) was less than 1.3, the fold induction at 1 µM (TOPflash (C2C12 cells)) was less than 1.3 and the fold induction at 1 µM (Nkx2.5 (P19 cells)) was less than 1.3. It also gave a fold induction at 1 µM (TOPflash (P19 cells)) of less than 1.3.
Compound `OCCNc1cc(Nc2ccc(N3CCOCC3)cc2)ncn1` [example 4, 2-(6-(4-Morpholinophenylamino)pyrimidin-4-ylamino)ethan-1-ol] has a fold induction at 1 µM (ANF (C2C12 cells)) of less than 1.3, a fold induction at 1 µM (ANF (P19 cells)) of less than 1.3 and a melting point of 204 to 207 °C. The fold induction at 1 µM (Nkx2.5 (C2C12 cells)) was less than 1.3, the fold induction at 1 µM (TOPflash (C2C12 cells)) was less than 1.3 and the fold induction at 1 µM (Nkx2.5 (P19 cells)) was less than 1.3. The fold induction at 1 µM (TOPflash (P19 cells)) was 1.3 to 2.
In the case of `COc1ccc(Nc2cccc(NCCO)n2)cc1` [example 42, 2-(6-(4-Methoxyphenylamino)pyridin-2-ylamino)ethan-1-ol], the “luciferase signal in all three reporter assays” value (ANF (C2C12 cells); [4]) is reported as “increase in the luciferase signal in all three reporter assays”, the fold induction at 1 µM (ANF (C2C12 cells)) is reported as 1.3 to 2 and the fold induction at 1 µM (ANF (P19 cells)) is reported as 1.3 to 2. For the same compound, the “luciferase signal in all three reporter assays” value (ANF (P19 cells); [4]) was “increase in the luciferase signal in all three reporter assays”, the “luciferase signal in the ANF reporter assay” value [2] was “generated an increase in the luciferase signal” and the fold induction at 1 µM (Nkx2.5 (C2C12 cells)) was 1.3 to 2. It also gave a fold induction at 1 µM (TOPflash (C2C12 cells)) of 1.3 to 2, a fold induction at 1 µM (Nkx2.5 (P19 cells)) of 1.3 to 2 and a fold induction at 1 µM (TOPflash (P19 cells)) greater than 2.
`OCCNc1cc(Nc2ccc(Oc3ccccc3)cc2)ncn1` [example 8, 2-(6-(4-Phenoxyphenylamino)pyrimidin-4-ylamino)ethan-1-ol] showed a fold induction at 1 µM (ANF (C2C12 cells)) of less than 1.3, a fold induction at 1 µM (ANF (P19 cells)) of less than 1.3 and a melting point of 154 to 156 °C. It also gave a fold induction at 1 µM (Nkx2.5 (C2C12 cells)) of 1.3 to 2, a fold induction at 1 µM (TOPflash (C2C12 cells)) of less than 1.3 and a fold induction at 1 µM (Nkx2.5 (P19 cells)) of less than 1.3. For the same compound, the fold induction at 1 µM (TOPflash (P19 cells)) was 1.3 to 2.
With `OCCCNc1cc(Nc2ccc(N3CCOCC3)cc2)ncn1` [example 6, 3-(6-(4-Morpholinophenylamino)pyrimidin-4-ylamino)propan-1-ol] the fold induction at 1 µM (ANF (C2C12 cells)) was 1.3 to 2, the fold induction at 1 µM (ANF (P19 cells)) was 1.3 to 2 and the melting point was 198 to 199 °C. It also gave a fold induction at 1 µM (Nkx2.5 (C2C12 cells)) of 1.3 to 2, a fold induction at 1 µM (TOPflash (C2C12 cells)) of less than 1.3 and a fold induction at 1 µM (Nkx2.5 (P19 cells)) of less than 1.3. For the same compound, the fold induction at 1 µM (TOPflash (P19 cells)) was less than 1.3.
In the case of `COc1ccc(Nc2cc(NCCO)ncn2)cc1` [example 1, 2-(6-(4-Methoxyphenylamino)pyrimidine-4-ylamino)ethan-1-ol], the fold induction at 1 µM (ANF (C2C12 cells)) is reported as greater than 2, the fold induction at 1 µM (ANF (P19 cells)) is reported as 1.3 to 2 and the “activation kinetics of Ca currents” value [3] is reported as “significantly speeds”. For the same compound, the “tetrodotoxin (TTX)-resistance of the Na currents” value [1] was “moderately increase”, the fold induction at 1 µM (Nkx2.5 (C2C12 cells)) was less than 1.3 and the fold induction at 1 µM (TOPflash (C2C12 cells)) was less than 1.3. For the same compound, the fold induction at 1 µM (Nkx2.5 (P19 cells)) was less than 1.3 and the fold induction at 1 µM (TOPflash (P19 cells)) was less than 1.3.
In the case of `CNc1cc(Nc2ccc(OC)cc2)ncn1` [example 11, N^4-(4-Methoxyphenyl)-N^6-methylpyrimidine-4,6-diamine], the fold induction at 1 µM (ANF (C2C12 cells)) is reported as less than 1.3, the fold induction at 1 µM (ANF (P19 cells)) is reported as less than 1.3 and the melting point is reported as 174 to 182 °C. For the same compound, the fold induction at 1 µM (Nkx2.5 (C2C12 cells)) was 1.3 to 2, the fold induction at 1 µM (TOPflash (C2C12 cells)) was 1.3 to 2 and the fold induction at 1 µM (Nkx2.5 (P19 cells)) was less than 1.3. The fold induction at 1 µM (TOPflash (P19 cells)) was greater than 2.
